Results as given in US20110294843A1, “ADMINISTRATION SCHEME OF POLAR OPIOID METABOLITES FOR POST-OPERATIVE PAIN MANAGEMENT” (PAION UK Limited, priority 2008, published 2011).
Where two headings read alike, the source gives them in different places.

Experiments:
[1] = test system: patients with pain treatment after surgery; assay: Meta analysis of four clinical studies with M6G pain treatment after surgery
Source text: The four studies M6G001, M6G012, M6G015 and M6G022 are described in the following.
The following variables were included in the meta analysis:
Nausea (none, mild, moderate, severe)
Sedation (none, mild, moderate, severe)
Pain (none, mild, moderate, severe)

[2] = literature, cited from earlier work
[3] = test system: patients following major abdominal surgery; assay: M6G022 study: analgesic efficacy and tolerability of M6G and morphine following major abdominal surgery
Description: Pain relief, nausea and emesis were recorded for 24 to 48 hours after start of the patient controlled analgesia.
The study site personnel (with the exception of the pharmacy); representatives of the sponsoring company; and the organisation involved in monitoring, data management, or other aspects of the study were blinded to the study treatment. The use of midazolam, temazepam, zopiclone or other short-acting pre-operative anxiolytics was allowed. All patients received a standardised general anaesthetic consisting of propofol induction, with either isoflurane or sevoflurane maintenance. These inhalational agents are associated with a similar risk of PONV. Nitrous oxide was not allowed because of its emetic effects, and the risk of an imbalance in its use. An initial bolus of 1-3 μg/kg of fentanyl or 0.1-0.3 μg/kg of sufentanyl followed by further doses as required, was used for pre- and peri-operative analgesia. Post-operative analgesia was provided by the study drug.
The investigator could administer up to 5 ml of PCA study drug, on no more than two occasions in each 24 hour post-operative period, as rescue medication if the patient was in uncontrolled pain. […] The patients stayed on PCA for a minimum of 24 hours following surgery, but could continue up to 48 hours if clinically indicated.
No prophylactic antiemetic was given, although iv ondansetron (4 mg/2 ml) was available if the patient experienced severe nausea, or immediately following emesis. If this was ineffective further doses of ondansetron; or other agents such as cyclizine, prochlorperazine or perphenazine; were allowed.
Pain intensity at rest was assessed by the patients using the VRS-11 scale at baseline, 15, 30 and 45 minutes and 1, 2, 4, 6, 9, 12, 15, 18, 21 and 24 hours after the start of PCA. A numerical scale was chosen because of the practical difficulty for post-operative patients of completing a visual analogue scale. If the patient remained on PCA after 24 hours, the pain scores were recorded every 8 hours up to 48 hours. In addition, at the end of the study the patients and observers were asked to assess the acceptability of their pain relief over the entire study using a 5 point rating global scale ranging from very poor (1) to excellent (5). […] The total consumption of study drugs was calculated.
Emesis risk factors of female gender; history of motion sickness or PONV; or smoking status were recorded at screening. Post-operative nausea was assessed by the patient using a 4 point ordinal scale (none, mild, moderate, severe) and occurrence of vomiting or dry retching recorded (yes/no; and if yes, the number of episodes) pre-operatively (Day −1), at baseline, and at 1, 2, 4, 6, 9, 12, 15, 18, 21, 24, 32, 40 and 48 hours after administration of the test analgesic. Nausea and vomiting were also combined in a single scoring system (postoperative nausea & vomiting, PONV), with an episode of vomiting or dry retching being scored as a 3 (severe) on the nausea scale.
Sedation was assessed using a combination of a binary question (sleepy, yes or no) and a 3 point ordinal scale (mild, moderate, severe) if the patient was sedated. All adverse events were recorded, along with concomitant medication use, with particular attention being paid to the use of anti-emetics.
The Intention to Treat (ITT) set of patients comprised all those who had been exposed to study medication at least once. This analysis set was the basis for the main efficacy and all safety and demographic analyses. Data were double entered using interactive verification into a CLINTRIAL database (Version 3.3.3, Phase Forward, Waltham, Mass., USA), and analysed using SAS (version 8.2, SAS Institute Inc., Cary, N.C., USA).

[4] = test system: patients following hip-replacement surgery; assay: M6G012 study: acute pain following hip-replacement surgery under general anaesthetic; format: in vivo, human; settings: 30 mg/70 kg at skin closure, four hour post-operative period
[5] = Partition coefficient (logP) between aqueous buffer and octanol; settings: phosphate/n-octanol
Source text: As stated above, the opioid metabolites according to the invention are polar metabolites. As understood hereinafter the term “polar” means a higher polarity as compared to the unpolar moφhine. The polar nature of a compound can be determined by measuring its partition coefficient between an aqueous buffer and an organic solvent such as octanol. […] This depends on the specific system.

CN1CC[C@]23c4c5ccc(O)c4O[C@H]2[C@@H](OC2OC(C(=O)O)C(O)C(O)C2O)C=CC3[C@H]1C5 (stereo partly drawn) [M6G, (5α,6α)-7,8-Didehydro-4,5-epoxy-3-hydroxy-17-methylmorphinan-β-yl-β-D-glucopyranosiduronic acid]
patients with moderate to severe sedation ([1]; human, in vivo, intravenous): 63.5%
patients with moderate to severe pain ([1]; time window 0 to 6 hours): 50.5%
patients with moderate to severe pain ([1]; time window 6-24 hours): 19.1%
patients with moderate to severe nausea ([1]; worst assessment): 23.9%
patients with vomiting ([1]; worst assessment): 26.0%
Log P ([2]; Avdeef et al. 1996): −0.76
Log P ([2]; Gaillard et al. 1994, calculated from lipophilicity potential): −1.3
Log P ([2]; Wu et al. 1997): −2.95
reduction of AUC for vomiting and dry retching in favour of M6G ([3]; 0-24 hours): 32.3%
mean totals of PCA demands ([3]; 4-48 h): 53.1
reduction of AUC for vomiting and dry retching in favour of M6G ([3]; 6-24 hours): 34.2%
Reduction of PONV AUC, M6G vs morphine ([3]; AUC 0-6 h): 27.0%
Reduction of PONV AUC, M6G vs morphine ([3]; AUC 0-12 h): 26.3%
Reduction of PONV AUC, M6G vs morphine ([3]; AUC 0-24 h): 24.3%
Reduction of PONV AUC, M6G vs morphine ([3]; AUC 6-24 h): 28.5%
Reduction of PONV AUC, M6G vs morphine ([3]; AUC 12-24 h): 24.5%
Reduction of PONV AUC, M6G vs morphine ([3]; AUC 24-48 h): 10.3%
patients with sedation score recorded as severe ([3]; baseline): 20.9%
patients sedated ([3]; baseline (when given control of the PCA button)): 75.7%
mean totals of PCA demands ([3]; early post-operative period (up to 4 hours)): 33.5
magnitude of reduction of PONV ([3]; initial 24 hours post-operatively): 24-29%
dose required to achieve comfort initially ([3]; loading and recovery doses before PCA): 45.0 mg/70 kg
difference between the adjusted means of pain intensity AUCs for M6G and morphine ([3]; over the 24 hours, VRS-11): +3.318
pain intensity compared with morphine ([3]; whole 24 hour period): non-inferior to morphine
pain (VAS) compared with 10 mg/70 kg morphine at skin closure [4]: non-inferior
logP [5]: -2.4
